Source: patent US10729785B2, “Particles comprising protamine and RNA in combination with endosome destabilizing agents” (BioNTech SE, priority 2014, dated 2020)

System: fresh human red blood cells
Assay: Validation of EDA: lysis of red blood cells at acidic pH (OD 405 nm of supernatant as surrogate of hemoglobin content)
Type: cell-based
Conditions: pH below 6, 7 hours; for damage of red blood cells / destabilization of cell membranes (OD 405 nm, hemoglobin content): 6 micrograms of peptide, 3 million human red blood cells in PBS, 37° C.

Sequence	damage of red blood cells / destabilization of cell membranes (OD 405 nm, hemoglobin content)	relative efficacy in damaging red blood cells (peptide 2 compared with peptide 1)
GLFEAIEGFIENGWEGLAEALAEALEALAAGGSC (Peptide 2) [Peptide derived from Influenza virus hemagglutinin, used as endosome destabilizing agent]	damages red blood cells	more efficacious than peptide 1
GLFEAIEGFIENGWEGMIDGWYG [peptide 1]	damages red blood cells	
